As a reminder, the IC50 is the point on the concentration scale where inhibition reaches its midpoint. By GI50 is commonly meant the concentration that inhibits growth by half.

Where only a bound is given, the exact number is not on record here.

The record followed here is patent US11274100B2, “EP300/CREBBP inhibitor” (Daiichi Sankyo Company, Limited, priority 2017, dated 2022).

In one experiment the target is EP300 (Homo sapiens, UniProt Q09472). Kind of experiment: Histone acetyltransferase inhibitory activity against EP300 (Test Example 1). The class given is biochemical. The conditions noted are these: 50 ng/mL EP300, 2 μM Acetyl-CoA, 100 nM Histone H4(1-25)-GSGSK (Biotin), 28° C. for 1 hour. Summed up: (§1)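 Enzyme (50 ng/mL EP300 or 125 ng/mL CREBBP) incubated 1 h at 28° C with 2 μM acetyl-CoA, 100 nM biotinylated histone H4(1-25) peptide and 10 to 0.0006 μM compound in pH 8.0 Tris buffer with 330 nM trichostatin A, 1% DMSO. Reaction stopped with Lys-CoA; acetylation read by TR-FRET (Eu-anti pan-Ac/Sta-ULight) after overnight room-temperature incubation.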

The target in the next experiment is CREBBP (Homo sapiens, UniProt Q92793). Kind of experiment: Histone acetyltransferase inhibitory activity against CREBBP (Test Example 1). In kind it is biochemical. Particulars: 125 ng/mL CREBBP, 2 μM Acetyl-CoA, 100 nM Histone H4(1-25)-GSGSK (Biotin), 28° C. for 1 hour. Summed up:
as §1

For the next experiment, the system named is H3K27Ac. Put plainly: Intracellular H3K27Ac inhibitory activity in LK2 cells (Test Example 2). In kind it is cell-based. The conditions noted are these: Homo sapiens, LK-2, cultured with compound for 3 hours, read-out: Test Example 2 H3K27Ac Inhibition (LK2) IC50. In short, it runs like this: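 Human squamous lung cancer LK2 cells (40000/well) cultured overnight at 37 °C, 5% CO2 before treatment. After paraformaldehyde fixation, peroxide quench and blocking, H3K27 acetylation detected with anti-acetyl-H3K27 rabbit mAb (4 °C overnight) and HRP secondary; chemiluminescent read-out.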

For another experiment, the system named is LK2 cells. Kind of experiment: Cell growth inhibitory activity, LK2 cells (Test Example 3). The class given is cell-based. Particulars: Homo sapiens, LK-2, 72 h, cultured for 3 days, CellTiter-Glo. The procedure: (§2) [Test Example 3] Evaluation of Cell Growth Inhibitory Activity
(§3) As a culture medium for each cell, a 10% FBS supplemented RPMI 1640 medium (for LK2 cells and TE-8 cells derived from human esophageal cancer) was used. LK2 cells were purchased from Human Science Research Resources Bank, and TE-8 cells were purchased from Riken Cell Bank. The compound of each of Examples 1 to 108b was prepared by dilution with Freedom EVO 150 (Tecan Trading AG) (4-fold diluted, 10 stages, 10 mM to 38 nM). The resultant was added to respective wells of a 384-well plate in an amount of 40 nL/well using Echo 555 (Labcyte Inc.). The LK2 or TE-8 cells were seeded in the plate at 400 cells/40 μL/well (day 0), and were cultured for 3 days. On the day of addition of the compound (day 0) and 3 days after the addition of the compound (day 3), an ATP measurement reagent of CellTiter-Glo (registered trademark) 2.0 Assay (Promega Corporation, #G9242) was added to each well in an amount of 10 μL/well, and the amount of luminescence of each well was measured using EnVision. Based on the amount of luminescence (C0) on the day of the addition of the compound, and the amounts of luminescence of a compound non-addition group (C3) and a compound addition group (T3) obtained after the 3-day culture of the compound, a cell survival rate was calculated in accordance with the following expression: Cell survival rate (%)=(T3−C0)/(C3−C0)×100
(§4) A concentration (GI50 value) of each compound at which the growth of the TE-8 or LK-2 cells was inhibited by 50% was calculated by semilogarithmically plotting the cell survival rate at each concentration and the compound concentration.
Background: Cellular ATP, detected with luciferase, serves as a proxy for viable cell number.

The subject of another experiment is TE-8 cells. Put plainly: Cell growth inhibitory activity, TE-8 cells (Test Example 3). The class given is cell-based. Particulars: Homo sapiens, 72 h, cultured for 3 days, CellTiter-Glo. The procedure: as §2, §3, §4

CREBBP, sequence (Q92793 whole entry): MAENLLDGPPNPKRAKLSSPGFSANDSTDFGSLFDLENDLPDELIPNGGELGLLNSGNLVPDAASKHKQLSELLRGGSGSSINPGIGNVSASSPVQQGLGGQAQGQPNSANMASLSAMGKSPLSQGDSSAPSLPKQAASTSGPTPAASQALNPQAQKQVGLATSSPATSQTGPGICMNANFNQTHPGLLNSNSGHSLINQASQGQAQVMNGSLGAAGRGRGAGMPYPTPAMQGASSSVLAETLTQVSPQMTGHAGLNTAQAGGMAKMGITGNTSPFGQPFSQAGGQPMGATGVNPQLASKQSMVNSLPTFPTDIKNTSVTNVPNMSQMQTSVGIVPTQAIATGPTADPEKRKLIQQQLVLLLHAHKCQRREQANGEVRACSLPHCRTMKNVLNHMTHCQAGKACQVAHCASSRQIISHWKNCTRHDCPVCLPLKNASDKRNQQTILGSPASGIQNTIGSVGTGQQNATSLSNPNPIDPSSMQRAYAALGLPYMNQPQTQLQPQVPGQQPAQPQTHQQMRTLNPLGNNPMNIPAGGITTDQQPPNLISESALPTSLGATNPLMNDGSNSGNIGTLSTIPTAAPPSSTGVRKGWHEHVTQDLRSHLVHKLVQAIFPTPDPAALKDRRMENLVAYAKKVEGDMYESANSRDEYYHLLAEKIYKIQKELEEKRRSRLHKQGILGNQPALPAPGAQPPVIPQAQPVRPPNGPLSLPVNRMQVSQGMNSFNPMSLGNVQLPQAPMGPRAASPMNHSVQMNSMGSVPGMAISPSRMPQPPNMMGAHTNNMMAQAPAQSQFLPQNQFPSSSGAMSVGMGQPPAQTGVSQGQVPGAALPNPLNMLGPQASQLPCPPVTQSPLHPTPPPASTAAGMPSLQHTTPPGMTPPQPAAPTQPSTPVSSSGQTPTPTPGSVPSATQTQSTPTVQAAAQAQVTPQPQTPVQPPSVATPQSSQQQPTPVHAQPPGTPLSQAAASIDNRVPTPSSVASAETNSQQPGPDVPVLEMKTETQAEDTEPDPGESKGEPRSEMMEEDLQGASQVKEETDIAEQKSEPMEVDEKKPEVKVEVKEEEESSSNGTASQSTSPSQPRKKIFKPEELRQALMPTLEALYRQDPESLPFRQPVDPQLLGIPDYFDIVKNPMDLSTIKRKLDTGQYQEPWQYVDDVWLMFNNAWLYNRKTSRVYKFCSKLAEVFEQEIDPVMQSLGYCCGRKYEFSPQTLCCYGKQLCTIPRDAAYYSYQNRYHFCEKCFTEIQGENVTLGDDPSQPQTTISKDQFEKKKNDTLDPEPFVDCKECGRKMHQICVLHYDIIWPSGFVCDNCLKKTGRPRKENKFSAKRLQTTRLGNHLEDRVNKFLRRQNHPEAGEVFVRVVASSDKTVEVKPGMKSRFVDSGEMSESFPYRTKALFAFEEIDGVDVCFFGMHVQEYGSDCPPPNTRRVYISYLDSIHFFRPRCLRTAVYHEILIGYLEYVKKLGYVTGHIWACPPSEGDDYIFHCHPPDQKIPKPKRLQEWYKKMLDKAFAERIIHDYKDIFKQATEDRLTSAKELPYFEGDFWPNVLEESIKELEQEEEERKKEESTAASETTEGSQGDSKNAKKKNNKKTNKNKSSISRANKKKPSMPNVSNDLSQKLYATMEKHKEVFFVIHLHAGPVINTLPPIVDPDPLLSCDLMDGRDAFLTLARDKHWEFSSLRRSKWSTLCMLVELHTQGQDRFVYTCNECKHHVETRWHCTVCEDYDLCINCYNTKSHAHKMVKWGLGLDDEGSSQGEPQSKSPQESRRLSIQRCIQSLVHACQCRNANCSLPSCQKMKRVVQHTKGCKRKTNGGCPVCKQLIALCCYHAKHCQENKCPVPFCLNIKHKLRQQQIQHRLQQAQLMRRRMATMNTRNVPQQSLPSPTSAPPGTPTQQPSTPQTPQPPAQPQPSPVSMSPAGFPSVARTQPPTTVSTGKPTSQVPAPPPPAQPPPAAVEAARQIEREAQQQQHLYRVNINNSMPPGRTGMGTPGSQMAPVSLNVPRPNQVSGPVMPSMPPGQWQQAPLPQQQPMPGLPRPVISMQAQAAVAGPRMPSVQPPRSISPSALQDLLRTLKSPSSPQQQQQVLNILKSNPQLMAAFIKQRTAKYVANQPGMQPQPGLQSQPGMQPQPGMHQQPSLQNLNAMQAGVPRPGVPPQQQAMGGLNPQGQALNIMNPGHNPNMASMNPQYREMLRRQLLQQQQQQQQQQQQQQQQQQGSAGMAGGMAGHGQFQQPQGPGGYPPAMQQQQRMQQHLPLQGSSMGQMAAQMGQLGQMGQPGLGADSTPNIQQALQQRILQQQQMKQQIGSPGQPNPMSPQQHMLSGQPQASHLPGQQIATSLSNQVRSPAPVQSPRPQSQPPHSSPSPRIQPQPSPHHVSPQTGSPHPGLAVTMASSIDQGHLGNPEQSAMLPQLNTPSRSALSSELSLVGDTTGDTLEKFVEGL
EP300, sequence (Q09472 whole entry): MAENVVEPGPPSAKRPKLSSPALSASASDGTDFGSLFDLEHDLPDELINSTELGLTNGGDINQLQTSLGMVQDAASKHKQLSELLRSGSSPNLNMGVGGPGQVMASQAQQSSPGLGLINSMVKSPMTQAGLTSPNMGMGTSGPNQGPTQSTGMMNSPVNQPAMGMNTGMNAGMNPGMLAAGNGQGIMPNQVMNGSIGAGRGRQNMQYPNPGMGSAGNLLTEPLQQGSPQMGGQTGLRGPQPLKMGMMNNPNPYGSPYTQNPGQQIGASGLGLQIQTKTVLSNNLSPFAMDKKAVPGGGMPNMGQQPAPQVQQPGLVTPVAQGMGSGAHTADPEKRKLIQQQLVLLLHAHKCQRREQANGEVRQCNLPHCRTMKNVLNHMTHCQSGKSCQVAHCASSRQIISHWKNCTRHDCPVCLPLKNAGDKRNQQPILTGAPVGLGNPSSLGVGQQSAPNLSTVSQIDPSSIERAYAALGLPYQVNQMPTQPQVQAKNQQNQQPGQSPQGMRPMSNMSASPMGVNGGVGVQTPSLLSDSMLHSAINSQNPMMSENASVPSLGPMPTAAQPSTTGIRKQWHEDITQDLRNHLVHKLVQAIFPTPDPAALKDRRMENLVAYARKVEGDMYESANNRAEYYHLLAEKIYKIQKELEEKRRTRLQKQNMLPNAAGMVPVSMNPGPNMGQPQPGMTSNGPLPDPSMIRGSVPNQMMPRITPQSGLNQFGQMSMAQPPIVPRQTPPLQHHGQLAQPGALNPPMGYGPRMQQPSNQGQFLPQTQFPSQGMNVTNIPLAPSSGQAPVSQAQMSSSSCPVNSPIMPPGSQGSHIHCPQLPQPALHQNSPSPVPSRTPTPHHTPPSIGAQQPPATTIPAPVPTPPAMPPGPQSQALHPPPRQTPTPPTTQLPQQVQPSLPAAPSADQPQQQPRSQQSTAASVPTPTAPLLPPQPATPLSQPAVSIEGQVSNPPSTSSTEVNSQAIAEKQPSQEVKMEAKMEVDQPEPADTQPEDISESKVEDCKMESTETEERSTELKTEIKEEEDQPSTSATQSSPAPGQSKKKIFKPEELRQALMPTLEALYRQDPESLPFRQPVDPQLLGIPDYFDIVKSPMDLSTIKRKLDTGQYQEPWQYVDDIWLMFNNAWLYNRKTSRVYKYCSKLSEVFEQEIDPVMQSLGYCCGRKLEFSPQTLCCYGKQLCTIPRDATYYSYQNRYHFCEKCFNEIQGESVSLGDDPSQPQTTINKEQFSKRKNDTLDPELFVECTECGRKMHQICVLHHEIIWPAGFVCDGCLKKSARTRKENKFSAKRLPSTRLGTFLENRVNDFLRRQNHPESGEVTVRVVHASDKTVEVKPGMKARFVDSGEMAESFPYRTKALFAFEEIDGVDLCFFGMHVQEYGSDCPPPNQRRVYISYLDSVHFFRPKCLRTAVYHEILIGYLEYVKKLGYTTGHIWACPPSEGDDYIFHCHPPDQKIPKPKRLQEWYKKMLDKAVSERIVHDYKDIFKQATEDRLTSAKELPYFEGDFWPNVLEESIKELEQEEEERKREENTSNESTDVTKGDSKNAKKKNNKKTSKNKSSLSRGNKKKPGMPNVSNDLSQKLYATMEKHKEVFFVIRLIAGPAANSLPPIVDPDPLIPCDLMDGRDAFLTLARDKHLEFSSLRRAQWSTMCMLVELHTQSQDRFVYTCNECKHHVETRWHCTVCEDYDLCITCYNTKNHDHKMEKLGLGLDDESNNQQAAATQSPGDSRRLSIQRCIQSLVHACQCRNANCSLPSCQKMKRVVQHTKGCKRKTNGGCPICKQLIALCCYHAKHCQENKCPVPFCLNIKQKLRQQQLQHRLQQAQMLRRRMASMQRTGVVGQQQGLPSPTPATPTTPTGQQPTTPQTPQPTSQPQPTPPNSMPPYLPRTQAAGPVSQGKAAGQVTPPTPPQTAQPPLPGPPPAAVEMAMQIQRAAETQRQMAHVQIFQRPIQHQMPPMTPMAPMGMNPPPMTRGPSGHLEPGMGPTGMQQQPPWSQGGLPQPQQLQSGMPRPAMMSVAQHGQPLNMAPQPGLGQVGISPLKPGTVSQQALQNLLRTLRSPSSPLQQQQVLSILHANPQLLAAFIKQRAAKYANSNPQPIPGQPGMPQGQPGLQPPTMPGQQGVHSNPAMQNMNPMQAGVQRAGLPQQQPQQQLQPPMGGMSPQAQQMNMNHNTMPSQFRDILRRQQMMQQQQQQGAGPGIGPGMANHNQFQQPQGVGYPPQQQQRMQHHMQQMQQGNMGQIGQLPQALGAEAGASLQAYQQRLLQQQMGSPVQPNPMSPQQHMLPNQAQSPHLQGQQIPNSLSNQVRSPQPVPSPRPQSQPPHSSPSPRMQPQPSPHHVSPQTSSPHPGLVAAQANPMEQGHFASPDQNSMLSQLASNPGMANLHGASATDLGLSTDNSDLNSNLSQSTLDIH

Turning to `COc1ccc(C2(C(=O)N3C[C@H](F)C[C@@H]3C(=O)Nc3ccc4[nH]ncc4c3F)CCC(F)(F)CC2)cc1` [Example 100], the figures for the IC50 at EP300, against CREBBP and in the experiment with H3K27Ac were 67 nM, 95 nM and 243 nM, respectively. Further, the GI50 stood at 660 nM in the experiment on LK2 cells and 1370 nM with TE-8 cells.
As for `[2H]C([2H])([2H])Oc1ccc(C2(C(=O)N3C[C@H](F)C[C@@H]3C(=O)Nc3ccc4[nH]ncc4n3)CCC(F)(F)CC2)cc1` [Example 92, (4R)-1-[(4,4-Difluoro-1-{4-[(^2H3)methyloxy]phenyl}cyclohexyl)carbonyl]-4-fluoro-N-1H-pyrazolo[4,3-b]pyridin-5-yl-D-prolinamide], the IC50 was 22 nM on EP300, 53 nM against CREBBP and 51 nM with H3K27Ac. The GI50 in the experiment on LK2 cells came out at 195 nM; with TE-8 cells it was 308 nM.
As to `O=C(Nc1ccc2[nH]ncc2n1)[C@H]1C[C@@H](F)CN1C(=O)C1(c2ccc(OCF)cc2)CCCC1` [Example 49], the IC50 amounted to 13 nM at EP300, 25 nM against CREBBP and 39 nM in the experiment on H3K27Ac. The GI50 in the experiment with LK2 cells was 75 nM; in the experiment on TE-8 cells, 68.1 nM.
In the case of `CC(=O)c1ccc(C2(C(=O)N3C[C@H](F)C[C@@H]3C(=O)Nc3ccc4[nH]ncc4n3)CCCCC2)cc1` [Example 83, (4R)-1-{[1-(4-Acetylphenyl)cyclohexyl]carbonyl}-4-fluoro-N-1H-pyrazolo[4,3-b]pyridin-5-yl-D-prolinamide], the IC50 stood at 33 nM at EP300, 61 nM against CREBBP and 19 nM with H3K27Ac. Further, the GI50 amounted to 203 nM with LK2 cells and 151 nM in the experiment with TE-8 cells.
In the case of `COc1ccc(C2(C(=O)N3CC(=O)C[C@@H]3C(=O)Nc3ccc4[nH]ccc4n3)CCC(F)(F)CC2)cc1` [Example 75, 1-{[4,4-Difluoro-1-(4-methoxyphenyl)cyclohexyl]carbonyl}-4-oxo-N-1H-pyrrolo[3,2-b]pyridin-5-yl-D-prolinamide], the IC50 against EP300 was determined as 43 nM; against CREBBP, 77 nM; in the experiment with H3K27Ac it was 67 nM. In addition, the 50% growth inhibitory concentration (GI50) with LK2 cells stood at 398 nM; with TE-8 cells, 613 nM.
The like results for `O=C(Nc1ccc2[nH]ncc2n1)[C@H]1C[C@@H](F)CN1C(=O)C1(c2ccc(C(=O)C(F)(F)F)cc2)CCCCC1` [Example 61, (4R)-4-Fluoro-N-1H-pyrazolo[4,3-b]pyridin-5-yl-1-({1-[4-(trifluoroacetyl)phenyl]cyclohexyl}carbonyl)-D-prolinamide] were, in that order, 56 nM, 95 nM, 21 nM, 149 nM and 216 nM.
For the compound `COc1ccc(C2(C(=O)N3C[C@H](F)C[C@@H]3C(=O)Nc3cc4ccccn4n3)CCCCC2)cc1` [Example 70, (4R)-4-Fluoro-1-{[1-(4-methoxyphenyl)cyclohexyl]carbonyl}-N-pyrazolo[1,5-a]pyridin-2-yl-D-prolinamide], the figures for the IC50 against EP300, on CREBBP and in the experiment with H3K27Ac were 60 nM, 52 nM and 94 nM, respectively. Also, the GI50 with LK2 cells was 729 nM; with TE-8 cells, 1070 nM.
The corresponding values for `O=C(Nc1ccc2[nH]ncc2n1)[C@H]1C[C@@H](F)CN1C(=O)C1(c2ccc(OCC(F)(F)F)c(F)c2)CC(F)(F)C1` [Example 87] are 38 nM, 82 nM, 73 nM, 237 nM and 300 nM.
Take `COCO[C@@H]1CN(C(=O)C2(c3ccc(OC)cc3)CCC(F)(F)CC2)[C@H]1C(=O)Nc1ccc2[nH]ncc2n1` [Example 96, (2R,3R)-1-{[4,4-Difluoro-1-(4-methoxyphenyl)cyclohexyl]carbonyl}-3-(methoxymethoxy)-N-(1H-pyrazolo[4,3-b]pyridin-5-yl)azetidine-2-carboxamide]: the values for the IC50 against EP300, at CREBBP and in the experiment with H3K27Ac were 2470 nM, 2170 nM and greater than 1000 nM, respectively. Also, the GI50 with LK2 cells and in the experiment on TE-8 cells was greater than 10000 nM in each case.
As for `COc1ccc(C2(C(=O)N3C[C@H](F)[C@@H](O)[C@@H]3C(=O)Nc3ccc4[nH]ncc4n3)CCC(F)(F)CC2)cc1` [Example 38], the IC50 against EP300 amounted to 57 nM; on CREBBP, 109 nM; with H3K27Ac it was 38 nM. In addition, the GI50 with LK2 cells turned out to be 117 nM; in the experiment on TE-8 cells it was 176 nM.
The like results for `O=C(Nc1ccc2[nH]c(CO)cc2n1)[C@H]1C[C@@H](F)CN1C(=O)C1(c2ccc(OC(F)F)cc2)CCC(F)(F)CC1` [Example 106, (4R)-1-({1-[4-(Difluoromethoxy)phenyl]-4,4-difluorocyclohexyl}carbonyl)-4-fluoro-N-[2-(hydroxymethyl)-1H-pyrrolo[3,2-b]pyridin-5-yl]-D-prolinamide] were, in that order, 24 nM, 43 nM, 39 nM, 250 nM and 337 nM.
For the compound `COc1ccc(C2(C(=O)N3CS(=O)(=O)C[C@@H]3C(=O)Nc3ccc4[nH]ccc4n3)CCCC2)cc1` [Example 65, (4S)-3-{[1-(4-Methoxyphenyl)cyclopentyl]carbonyl}-N-(1H-pyrrolo[3,2-b]pyridin-5-yl)-1,3-thiazolidine-4-carboxamide 1,1-dioxide], the IC50 was 18 nM at EP300, 37 nM at CREBBP and 9 nM with H3K27Ac. Besides, the figures for the GI50 in the experiment with LK2 cells and in the experiment on TE-8 cells were 79.2 nM and 151 nM, respectively.
Consider `COc1ccc(C2(C(=O)N3C[C@H](F)C[C@@H]3C(=O)Nc3cccc4[nH]ncc34)CCCCO2)cc1` (single isomer, unassigned) [Example 44], for which the IC50 at EP300 is 48 nM; against CREBBP it was 48 nM; in the experiment on H3K27Ac, 246 nM. Moreover, the results for the GI50 in the experiment with LK2 cells and in the experiment on TE-8 cells were 589 nM and 1740 nM, respectively.
Take `O=C(Nc1ccc2[nH]ncc2n1)[C@H]1C[C@@H](F)CN1C(=O)C1(c2ccc(OCF)c(F)c2)CCC(F)(F)CC1` [Example 85, (4R)-1-({4,4-Difluoro-1-[3-fluoro-4-(fluoromethoxy)phenyl]cyclohexyl}carbonyl)-4-fluoro-N-1H-pyrazolo[4,3-b]pyridin-5-yl-D-prolinamide]: the IC50 against EP300 stood at 31 nM; at CREBBP, 53 nM; with H3K27Ac, 29 nM. In addition, the GI50 in the experiment with LK2 cells is 206 nM; with TE-8 cells, 412 nM.
The like results for `COc1ccc(C2(C(=O)N3CCOCC(Cc4cccc5[nH]ncc45)C3)CCCC2)cc1` (single isomer, unassigned) [Example 108b, [6-(1H-Indazol-4-ylmethyl)-1,4-oxazepan-4-yl][1-(4-methoxyphenyl)cyclopentyl]methanone] were, in that order, 50 nM, 83 nM, 125 nM, 1090 nM and 1160 nM.
The like results for `COc1ccc(C2(C(=O)N3C[C@H](F)C[C@@H]3C(=O)Nc3ccc4[nH]ncc4n3)CC(C)(C)C2)cc1` [Example 57] were, in that order, 48 nM, 76 nM, 53 nM, 310 nM and 473 nM.
For `COc1ccc(C2(C(=O)N(C)[C@H](C)C(=O)Nc3ccc4[nH]ncc4n3)CCCCC2)cc1` [Example 46], the figures for the IC50 against EP300, against CREBBP and in the experiment on H3K27Ac were 24 nM, 45 nM and 14 nM, respectively. Further, the GI50 with LK2 cells came out at 147 nM; in the experiment on TE-8 cells it was 145 nM.
The like results for `COc1cccc(C2(C(=O)N3C[C@H](F)C[C@@H]3C(=O)Nc3ccc4[nH]ncc4n3)CCC(F)(F)CC2)c1` [Example 93, (4R)-1-{[4,4-Difluoro-1-(3-methoxyphenyl)cyclohexyl]carbonyl}-4-fluoro-N-1H-pyrazolo[4,3-b]pyridin-5-yl-D-prolinamide] were, in that order, 56 nM, 76 nM, 311 nM, 746 nM and 1050 nM.
